The results in this text go back to ChEMBL document CHEMBL3784917, “Recent Progress in Histone Demethylase Inhibitors” (J Med Chem, 2016).

The target of test [1] is T1, Lysine-specific demethylase 4A (Homo sapiens, UniProt O75164).
T1 sequence (O75164 whole entry): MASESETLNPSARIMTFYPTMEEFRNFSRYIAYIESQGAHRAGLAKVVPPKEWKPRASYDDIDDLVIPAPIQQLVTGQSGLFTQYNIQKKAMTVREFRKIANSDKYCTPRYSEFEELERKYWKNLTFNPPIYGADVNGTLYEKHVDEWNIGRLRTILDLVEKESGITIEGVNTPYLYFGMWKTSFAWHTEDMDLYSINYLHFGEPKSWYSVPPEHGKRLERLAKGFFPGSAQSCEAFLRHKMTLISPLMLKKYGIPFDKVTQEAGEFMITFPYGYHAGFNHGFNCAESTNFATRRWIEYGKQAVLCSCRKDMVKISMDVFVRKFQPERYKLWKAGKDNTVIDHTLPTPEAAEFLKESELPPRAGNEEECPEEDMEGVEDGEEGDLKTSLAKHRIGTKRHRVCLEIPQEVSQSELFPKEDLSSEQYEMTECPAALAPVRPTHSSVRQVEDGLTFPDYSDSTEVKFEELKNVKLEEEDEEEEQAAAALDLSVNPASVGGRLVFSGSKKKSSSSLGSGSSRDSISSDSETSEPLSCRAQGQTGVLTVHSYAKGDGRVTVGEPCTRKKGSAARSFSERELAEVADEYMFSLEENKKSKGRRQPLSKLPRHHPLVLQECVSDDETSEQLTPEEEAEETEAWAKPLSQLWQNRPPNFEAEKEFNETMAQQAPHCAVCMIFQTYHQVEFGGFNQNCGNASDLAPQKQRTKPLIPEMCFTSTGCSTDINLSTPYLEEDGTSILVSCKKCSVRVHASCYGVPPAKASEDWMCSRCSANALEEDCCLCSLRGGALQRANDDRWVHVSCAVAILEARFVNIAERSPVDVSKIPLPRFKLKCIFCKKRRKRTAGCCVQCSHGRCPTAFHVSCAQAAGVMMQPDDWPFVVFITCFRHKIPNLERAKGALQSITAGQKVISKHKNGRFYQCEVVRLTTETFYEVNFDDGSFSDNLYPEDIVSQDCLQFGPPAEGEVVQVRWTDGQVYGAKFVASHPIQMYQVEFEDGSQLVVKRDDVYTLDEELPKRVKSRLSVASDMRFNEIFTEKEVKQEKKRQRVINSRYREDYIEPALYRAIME
The test can be described thus: Inhibition of recombinant human N-terminal His-tagged KDM4A (1 to 350 residues) expressed in Escherichia coli using methylated biotin-H3K9 substrate preincubated for 10 mins followed by substrate addition measured after 10 mins by AlphaLisa assay.

The target in test [2] is T2, Lysine-specific demethylase 2B (Homo sapiens, UniProt Q8NHM5).
T2 sequence (Q8NHM5 whole entry): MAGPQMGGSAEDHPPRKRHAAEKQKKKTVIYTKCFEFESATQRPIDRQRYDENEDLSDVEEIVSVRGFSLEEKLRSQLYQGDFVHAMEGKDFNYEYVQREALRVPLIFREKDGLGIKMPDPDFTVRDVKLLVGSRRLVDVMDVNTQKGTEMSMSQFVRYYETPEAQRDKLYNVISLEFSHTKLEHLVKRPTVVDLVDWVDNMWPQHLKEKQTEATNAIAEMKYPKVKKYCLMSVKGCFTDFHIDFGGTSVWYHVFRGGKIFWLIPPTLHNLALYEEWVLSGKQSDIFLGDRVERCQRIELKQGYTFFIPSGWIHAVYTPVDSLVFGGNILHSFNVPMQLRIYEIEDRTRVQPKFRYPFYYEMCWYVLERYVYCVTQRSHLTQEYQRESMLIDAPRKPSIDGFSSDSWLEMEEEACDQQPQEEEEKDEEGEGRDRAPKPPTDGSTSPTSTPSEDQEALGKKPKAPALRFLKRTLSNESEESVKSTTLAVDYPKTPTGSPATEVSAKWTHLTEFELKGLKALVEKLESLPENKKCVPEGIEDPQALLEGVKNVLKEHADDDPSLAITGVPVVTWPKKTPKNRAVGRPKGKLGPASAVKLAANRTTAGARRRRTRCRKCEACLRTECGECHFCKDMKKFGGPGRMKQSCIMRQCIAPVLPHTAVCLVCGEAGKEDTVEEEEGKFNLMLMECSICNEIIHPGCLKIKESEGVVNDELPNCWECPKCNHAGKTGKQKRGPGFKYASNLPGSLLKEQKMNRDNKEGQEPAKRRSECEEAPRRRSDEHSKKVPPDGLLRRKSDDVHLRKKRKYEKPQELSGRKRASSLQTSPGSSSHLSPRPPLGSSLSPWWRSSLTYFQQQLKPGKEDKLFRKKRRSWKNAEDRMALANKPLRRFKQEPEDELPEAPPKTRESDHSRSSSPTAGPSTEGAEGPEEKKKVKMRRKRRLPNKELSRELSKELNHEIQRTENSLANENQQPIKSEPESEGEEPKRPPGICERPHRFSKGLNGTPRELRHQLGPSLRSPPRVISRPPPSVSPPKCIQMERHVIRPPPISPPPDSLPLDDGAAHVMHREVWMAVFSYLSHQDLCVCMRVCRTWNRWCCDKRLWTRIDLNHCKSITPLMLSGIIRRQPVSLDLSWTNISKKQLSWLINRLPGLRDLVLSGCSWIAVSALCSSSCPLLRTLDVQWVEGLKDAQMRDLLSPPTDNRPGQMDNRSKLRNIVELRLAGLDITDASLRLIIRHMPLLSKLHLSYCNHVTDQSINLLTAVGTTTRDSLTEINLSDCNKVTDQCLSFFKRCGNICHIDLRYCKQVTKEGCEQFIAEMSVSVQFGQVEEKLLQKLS
The test is described as follows: biochemical.

Bounds are passed on as bounds.

What is called IC50 is the midpoint of a concentration-inhibition curve. For `CCN(CCN(C)C)C(=O)CNCc1cc(C(=O)O)ccn1`, the IC50 was below 100 nM in test [1] and 100 nM in test [2].
On the same counts, the results for `CCN(CC)CCCCNCc1cc(C=O)ccn1` are above 2500 nM and above 2500 nM.
As for `CCN(CCN(C)C)C(=O)CNCc1cc(CNC(=O)C(F)(F)F)ccn1`, the IC50 in test [1] and in test [2] was above 2500 nM each time.
